Results published in patent publication US8501783B2, “Conformationally restricted urea inhibitors of soluble epoxide hydrolase” (The Regents of the University of California, priority 2006, dated 2013).
pIC50: −log10 of the molar value. “And” between values parts separate entries of the source, which are not always exact repeats. Equal entries are not always repeated. Where two headings read alike, the source gives them in different places.

How the values were obtained:
[1] = Solubility in oil of the dosing preparation (compound in Crisco); assay type: physicochemical; conditions: appearance in oil, in parentheses after compound number
From the text: The dogs are fed immediately thereafter.

human sEH = human sEH (Homo sapiens (Human), UniProt P34913); assay: Inhibition of human soluble epoxide hydrolase (IC50; one of three substrate methods); assay type: biochemical;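 further: enzyme expressed in baculovirus and affinity-purified, assays run in triplicate, with substrate and read-out differing among the three methods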
[2] = Pharmacokinetic screening in dogs, oral administration, plasma LC-MS/MS; conditions: for LC/MS analysis, plasma level at time 0 / LC/MS analysis, plasma level at time 15 / LC/MS analysis, plasma level at time 30 / LC/MS analysis, plasma level at time 60 / LC/MS analysis, plasma level at time 120 / LC/MS analysis, plasma level at time 180 / LC/MS analysis, plasma level at time 240 / LC/MS analysis, plasma level at time 300 / LC/MS analysis, plasma level at time 360 / LC/MS analysis, plasma level at time 480 / LC/MS analysis, plasma level at time 1440: single oral dose (0.3 mg/kg per FIG. 1); for AUC: dog, plasma, po; for AUCINF_D_pred: dose-normalised

human sEH, sequence (P34913 whole entry): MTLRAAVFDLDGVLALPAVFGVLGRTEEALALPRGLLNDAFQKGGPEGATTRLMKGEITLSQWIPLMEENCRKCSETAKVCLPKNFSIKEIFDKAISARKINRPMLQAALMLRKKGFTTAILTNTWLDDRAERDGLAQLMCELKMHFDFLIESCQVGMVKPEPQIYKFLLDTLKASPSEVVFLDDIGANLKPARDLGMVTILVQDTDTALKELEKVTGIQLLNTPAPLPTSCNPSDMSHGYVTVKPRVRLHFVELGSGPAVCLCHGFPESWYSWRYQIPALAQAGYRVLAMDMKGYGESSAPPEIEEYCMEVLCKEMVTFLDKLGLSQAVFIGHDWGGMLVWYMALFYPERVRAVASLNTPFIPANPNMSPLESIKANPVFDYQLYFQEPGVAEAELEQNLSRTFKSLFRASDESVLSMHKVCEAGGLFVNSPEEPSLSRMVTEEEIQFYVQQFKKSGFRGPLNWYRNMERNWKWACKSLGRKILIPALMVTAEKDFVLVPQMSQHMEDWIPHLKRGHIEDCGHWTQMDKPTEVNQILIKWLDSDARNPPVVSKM

In the case of `O=C(NCC1CCN(C(=O)c2ccccc2)CC1)NC12CC3CC(CC(C3)C1)C2` [Compound 1121, N-((1-benzoylpiperidin-4-yl)methyl)-N′-(adamant-1-yl)urea], the solubility in oil [1] was 1121 (Not dissolved), the pIC50 (human sEH; recombinant human sEH) was 8.49 and the “LC/MS analysis, plasma level at time 0” value ([2]; dogs, time 0 min) was 0.00. For the same compound, the “LC/MS analysis, plasma level at time 15” value ([2]; dogs, time 15 min) was 4.86, the “LC/MS analysis, plasma level at time 30” value ([2]; dogs, time 30 min) was 3.81 and the “LC/MS analysis, plasma level at time 60” value ([2]; dogs, time 60 min) was 1.98. The “LC/MS analysis, plasma level at time 120” value ([2]; dogs, time 120 min) was 0.42, the “LC/MS analysis, plasma level at time 180” value ([2]; dogs, time 180 min) was 0.16 and the “LC/MS analysis, plasma level at time 240” value ([2]; dogs, time 240 min) was 0.06. The “LC/MS analysis, plasma level at time 300” value ([2]; dogs, time 300 min) was 0.05, the “LC/MS analysis, plasma level at time 360” value ([2]; dogs, time 360 min) was 0.03 and the “LC/MS analysis, plasma level at time 480” value ([2]; dogs, time 480 min) was 0.03. For the same compound, the “LC/MS analysis, plasma level at time 1440” value ([2]; dogs, time 1440 min) was 0.04.

With `CC(=O)N1CCC(NC(=O)NC23CC4CC(CC(C4)C2)C3)CC1` [Compound 1153, N-(1-acetylpiperidin-4-yl)-N′-(adamant-1-yl)urea] the solubility in oil [1] was 1153 (Opaque), the AUC ([2]; 0.3 mg/kg) was 597 nM·h and the “plasma level, in solution at 0.1 mg/kg dose, time 0” value ([2]; dogs, oral, 0.1 mg/kg, time 0 min) was 0.31. For the same compound, the “plasma level, in solution at 0.1 mg/kg dose, time 15” value ([2]; dogs, oral, 0.1 mg/kg, time 15 min) was 5.33, the “plasma level, in solution at 0.1 mg/kg dose, time 30” value ([2]; dogs, oral, 0.1 mg/kg, time 30 min) was 19.59 and the “plasma level, in solution at 0.1 mg/kg dose, time 60” value ([2]; dogs, oral, 0.1 mg/kg, time 60 min) was 56.74. For the same compound, the “plasma level, in solution at 0.1 mg/kg dose, time 120” value ([2]; dogs, oral, 0.1 mg/kg, time 120 min) was 106.43, the “plasma level, in solution at 0.1 mg/kg dose, time 180” value ([2]; dogs, oral, 0.1 mg/kg, time 180 min) was 100.94 and the “plasma level, in solution at 0.1 mg/kg dose, time 240” value ([2]; dogs, oral, 0.1 mg/kg, time 240 min) was 75.71. For the same compound, the “plasma level, in solution at 0.1 mg/kg dose, time 300” value ([2]; dogs, oral, 0.1 mg/kg, time 300 min) was 44.51, the “plasma level, in solution at 0.1 mg/kg dose, time 360” value ([2]; dogs, oral, 0.1 mg/kg, time 360 min) was 29.15 and the “plasma level, in solution at 0.1 mg/kg dose, time 480” value ([2]; dogs, oral, 0.1 mg/kg, time 480 min) was 13.01. For the same compound, the “plasma level, in solution at 0.1 mg/kg dose, time 1440” value ([2]; dogs, oral, 0.1 mg/kg, time 1440 min) was 0.00, the “plasma level, in solution at 0.3 mg/kg dose, time 0” value ([2]; dogs, oral, 0.3 mg/kg, time 0 min) was 0.00 and the “plasma level, in solution at 0.3 mg/kg dose, time 15” value ([2]; dogs, oral, 0.3 mg/kg, time 15 min) was 288.97. For the same compound, the “plasma level, in solution at 0.3 mg/kg dose, time 30” value ([2]; dogs, oral, 0.3 mg/kg, time 30 min) was 276.16, the “plasma level, in solution at 0.3 mg/kg dose, time 60” value ([2]; dogs, oral, 0.3 mg/kg, time 60 min) was 241.03 and the “plasma level, in solution at 0.3 mg/kg dose, time 120” value ([2]; dogs, oral, 0.3 mg/kg, time 120 min) was 107.19. For the same compound, the “plasma level, in solution at 0.3 mg/kg dose, time 180” value ([2]; dogs, oral, 0.3 mg/kg, time 180 min) was 56.41, the “plasma level, in solution at 0.3 mg/kg dose, time 240” value ([2]; dogs, oral, 0.3 mg/kg, time 240 min) was 26.42 and the “plasma level, in solution at 0.3 mg/kg dose, time 300” value ([2]; dogs, oral, 0.3 mg/kg, time 300 min) was 20.81. For the same compound, the “plasma level, in solution at 0.3 mg/kg dose, time 360” value ([2]; dogs, oral, 0.3 mg/kg, time 360 min) was 10.10, the “plasma level, in solution at 0.3 mg/kg dose, time 480” value ([2]; dogs, oral, 0.3 mg/kg, time 480 min) was 4.66 and the “plasma level, in solution at 0.3 mg/kg dose, time 1440” value ([2]; dogs, oral, 0.3 mg/kg, time 1440 min) was 0.00. For the same compound, the “AUCINF_D_pred” value ([2]; dogs, oral) was 119214 kg·nM·min/mg, the “LC/MS analysis, plasma level at time 0” value ([2]; dogs, time 0 min) was 0.00 and the “LC/MS analysis, plasma level at time 15” value ([2]; dogs, time 15 min) was 288.97. The “LC/MS analysis, plasma level at time 30” value ([2]; dogs, time 30 min) was 276.16, the “LC/MS analysis, plasma level at time 60” value ([2]; dogs, time 60 min) was 2411.03 and the “LC/MS analysis, plasma level at time 120” value ([2]; dogs, time 120 min) was 107.19. The “LC/MS analysis, plasma level at time 180” value ([2]; dogs, time 180 min) was 56.41, the “LC/MS analysis, plasma level at time 240” value ([2]; dogs, time 240 min) was 26.42 and the “LC/MS analysis, plasma level at time 300” value ([2]; dogs, time 300 min) was 20.81. For the same compound, the “LC/MS analysis, plasma level at time 360” value ([2]; dogs, time 360 min) was 10.10, the “LC/MS analysis, plasma level at time 480” value ([2]; dogs, time 480 min) was 4.66 and the “LC/MS analysis, plasma level at time 1440” value ([2]; dogs, time 1440 min) was 0.00.

In the case of `CCCC(=O)N1CCC(NC(=O)NC23CC4CC(CC(C4)C2)C3)CC1` [Compound 1157, N-(1-butyrylpiperidin-4-yl)-N′-(adamant-1-yl)urea], the solubility in oil [1] was 1157 (Opaque), the pIC50 (human sEH) was 8.59 and 8.58 and the AUC ([2]; 0.3 mg/kg) was 36.7 nM·h. For the same compound, the “AUCINF_D_pred” value ([2]; dogs, oral) was 7187 kg·nM·min/mg, the “LC/MS analysis, plasma level at time 0” value ([2]; dogs, time 0 min) was 0.00 and the “LC/MS analysis, plasma level at time 15” value ([2]; dogs, time 15 min) was 0.58. For the same compound, the “LC/MS analysis, plasma level at time 30” value ([2]; dogs, time 30 min) was 5.18, the “LC/MS analysis, plasma level at time 60” value ([2]; dogs, time 60 min) was 7.77 and the “LC/MS analysis, plasma level at time 120” value ([2]; dogs, time 120 min) was 9.50. For the same compound, the “LC/MS analysis, plasma level at time 180” value ([2]; dogs, time 180 min) was 7.05, the “LC/MS analysis, plasma level at time 240” value ([2]; dogs, time 240 min) was 4.60 and the “LC/MS analysis, plasma level at time 300” value ([2]; dogs, time 300 min) was 2.45. The “LC/MS analysis, plasma level at time 360” value ([2]; dogs, time 360 min) was 2.45, the “LC/MS analysis, plasma level at time 480” value ([2]; dogs, time 480 min) was 0.86 and the “LC/MS analysis, plasma level at time 1440” value ([2]; dogs, time 1440 min) was 0.00.

For `O=C(NC1CCN(C(=O)c2ccccc2)CC1)NC12CC3CC(CC(C3)C1)C2` [Compound 1159, N-(1-benzoylpiperidin-4-yl)-N′-(adamant-1-yl)urea], the solubility in oil [1] was 1159 (Opaque), the pIC50 (human sEH; recombinant human sEH) was 8.89 and the “LC/MS analysis, plasma level at time 0” value ([2]; dogs, time 0 min) was 0.00. The “LC/MS analysis, plasma level at time 15” value ([2]; dogs, time 15 min) was 7.26, the “LC/MS analysis, plasma level at time 30” value ([2]; dogs, time 30 min) was 7.82 and the “LC/MS analysis, plasma level at time 60” value ([2]; dogs, time 60 min) was 4.58. The “LC/MS analysis, plasma level at time 120” value ([2]; dogs, time 120 min) was 1.39, the “LC/MS analysis, plasma level at time 180” value ([2]; dogs, time 180 min) was 0.60 and the “LC/MS analysis, plasma level at time 240” value ([2]; dogs, time 240 min) was 0.00. The “LC/MS analysis, plasma level at time 300” value ([2]; dogs, time 300 min) was 0.00, the “LC/MS analysis, plasma level at time 360” value ([2]; dogs, time 360 min) was 0.00 and the “LC/MS analysis, plasma level at time 480” value ([2]; dogs, time 480 min) was 0.00. The “LC/MS analysis, plasma level at time 1440” value ([2]; dogs, time 1440 min) was 0.00.

For `CCC(=O)N1CCC(NC(=O)NC23CC4CC(CC(C4)C2)C3)CC1` [Compound 1163, N-(1-propionylpiperidin-4-yl)-N′-(adamant-1-yl)urea], the solubility in oil [1] was 1163 (Opaque), the pIC50 (human sEH) was 8.50 and the AUC ([2]; 0.3 mg/kg) was 93.3 nM·h. The “AUCINF_D_pred” value ([2]; dogs, oral) was 18504 kg·nM·min/mg, the “LC/MS analysis, plasma level at time 0” value ([2]; dogs, time 0 min) was 0.00 and the “LC/MS analysis, plasma level at time 15” value ([2]; dogs, time 15 min) was 5.70. For the same compound, the “LC/MS analysis, plasma level at time 30” value ([2]; dogs, time 30 min) was 16.05, the “LC/MS analysis, plasma level at time 60” value ([2]; dogs, time 60 min) was 31.79 and the “LC/MS analysis, plasma level at time 120” value ([2]; dogs, time 120 min) was 24.00. For the same compound, the “LC/MS analysis, plasma level at time 180” value ([2]; dogs, time 180 min) was 14.55, the “LC/MS analysis, plasma level at time 240” value ([2]; dogs, time 240 min) was 10.05 and the “LC/MS analysis, plasma level at time 300” value ([2]; dogs, time 300 min) was 7.20. The “LC/MS analysis, plasma level at time 360” value ([2]; dogs, time 360 min) was 4.95, the “LC/MS analysis, plasma level at time 480” value ([2]; dogs, time 480 min) was 1.50 and the “LC/MS analysis, plasma level at time 1440” value ([2]; dogs, time 1440 min) was 0.00.
